Key:
[1] = Inhibition of PKC
[2] = target: Cyclin-dependent kinase 2 (Homo sapiens, UniProt P24941); assay: Binding affinity to CDK2
[3] = target: Epidermal growth factor receptor (Homo sapiens, UniProt P00533); assay: Inhibition of EGFR
[4] = Inhibition of PKA

Epidermal growth factor receptor, sequence (P00533 whole entry): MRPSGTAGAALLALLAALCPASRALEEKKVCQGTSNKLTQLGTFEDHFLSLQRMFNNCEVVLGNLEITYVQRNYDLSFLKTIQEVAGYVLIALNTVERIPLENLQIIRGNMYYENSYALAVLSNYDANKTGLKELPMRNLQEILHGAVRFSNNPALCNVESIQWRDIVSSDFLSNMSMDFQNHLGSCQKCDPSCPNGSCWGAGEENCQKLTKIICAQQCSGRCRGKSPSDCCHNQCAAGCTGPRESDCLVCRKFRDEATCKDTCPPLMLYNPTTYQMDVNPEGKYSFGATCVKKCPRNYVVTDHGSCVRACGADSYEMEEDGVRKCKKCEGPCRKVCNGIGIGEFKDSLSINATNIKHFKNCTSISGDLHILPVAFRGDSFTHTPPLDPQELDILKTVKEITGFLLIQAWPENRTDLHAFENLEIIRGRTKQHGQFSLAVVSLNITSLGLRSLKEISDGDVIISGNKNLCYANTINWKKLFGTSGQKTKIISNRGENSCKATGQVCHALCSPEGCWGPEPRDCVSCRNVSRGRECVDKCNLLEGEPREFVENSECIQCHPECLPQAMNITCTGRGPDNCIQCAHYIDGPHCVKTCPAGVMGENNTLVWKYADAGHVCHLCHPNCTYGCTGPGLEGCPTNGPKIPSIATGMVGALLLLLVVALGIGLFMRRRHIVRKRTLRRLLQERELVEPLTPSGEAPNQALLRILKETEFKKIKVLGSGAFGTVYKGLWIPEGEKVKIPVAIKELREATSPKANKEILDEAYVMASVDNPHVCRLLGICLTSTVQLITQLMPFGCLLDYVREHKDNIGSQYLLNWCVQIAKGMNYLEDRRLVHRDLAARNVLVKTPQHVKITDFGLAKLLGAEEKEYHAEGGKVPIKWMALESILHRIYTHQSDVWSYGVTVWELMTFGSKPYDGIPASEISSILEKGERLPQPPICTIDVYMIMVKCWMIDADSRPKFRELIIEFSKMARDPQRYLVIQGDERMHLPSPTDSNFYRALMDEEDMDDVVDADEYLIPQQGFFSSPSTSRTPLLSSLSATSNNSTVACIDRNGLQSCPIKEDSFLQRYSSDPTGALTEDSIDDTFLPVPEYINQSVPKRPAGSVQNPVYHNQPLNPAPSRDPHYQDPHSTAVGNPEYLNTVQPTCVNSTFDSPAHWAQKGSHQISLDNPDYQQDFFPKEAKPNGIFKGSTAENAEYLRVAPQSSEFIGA

IC50 [1]: > 500 µM | Kd [2]: 100 µM | IC50 [3]: 16 µM | IC50 [4]: > 500 µM
SMILES: O=C(/C=C/c1ccc(O)c(O)c1)c1ccc(O)cc1O [BUTEIN]

— ChEMBL document CHEMBL1156625, “NMR screening for lead compounds using tryptophan-mutated proteins” (J Med Chem, 2008)
